According to US20240270809A1, “ORAL GLP RECEPTOR AGONISTS” (priority 2020, published 2024):
Read-outs that look alike come from different tables or passages of the source. Positions of bridges follow the written chain, without caps; N, C: chain ends. Non-standard residues stand in square brackets, D forms with d. Residues, ends and D or L forms follow the SMILES beside them. *: point of attachment. Malonyl(2,2-Me2,histaminyl) = CC(C)(C(=O)NCCc1cnc[nH]1)C(=O)*; Ala(1H-tetrazol-5-yl) = N[C@@H](Cc1nnn[nH]1)C(=O)O; αMeL = CC(C)C[C@](C)(N)C(=O)O; Nle = CCCC[C@H](N)C(=O)O; Aib = CC(C)(N)C(=O)O

Experiments:
[1] = molecular target: T1, human GLP2 receptor (Homo sapiens, UniProt O95838); experiment: cAMP accumulation assay, functional agonism of human GLP2 receptor; type: cell-based; conditions: HEK cells infected with human GLP2 receptor BacMam virus, HTRF cAMP; for Emax: HEK293, read-out: Human GLP-2R agonist cAMP Emax; for EC50: read-out: Human GLP-2R agonist cAMP pEC50 (converted)
T1 construct: expressed in transfected cells; host or cells: HEK cells, BacMam virus transduction
T1 sequence (O95838 1-553): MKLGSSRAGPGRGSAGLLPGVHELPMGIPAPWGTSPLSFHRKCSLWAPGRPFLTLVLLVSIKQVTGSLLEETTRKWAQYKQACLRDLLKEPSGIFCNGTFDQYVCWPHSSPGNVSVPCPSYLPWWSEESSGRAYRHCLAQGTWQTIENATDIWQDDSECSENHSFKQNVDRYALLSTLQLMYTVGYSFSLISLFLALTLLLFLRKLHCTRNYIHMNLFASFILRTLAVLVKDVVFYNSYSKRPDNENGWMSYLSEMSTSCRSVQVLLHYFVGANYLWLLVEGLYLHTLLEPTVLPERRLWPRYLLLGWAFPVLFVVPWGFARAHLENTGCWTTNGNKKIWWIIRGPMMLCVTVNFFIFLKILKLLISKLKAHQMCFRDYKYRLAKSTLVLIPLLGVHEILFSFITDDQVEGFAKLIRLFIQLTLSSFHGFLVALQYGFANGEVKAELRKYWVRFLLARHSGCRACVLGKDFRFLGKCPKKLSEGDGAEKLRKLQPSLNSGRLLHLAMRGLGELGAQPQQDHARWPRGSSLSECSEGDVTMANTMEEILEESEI
Summary of the method: (§1)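 Steps: infect HEK cells with human GLP1 or GLP2 receptor BacMam for 24 hours; freeze; resuspend in HBSS with 0.5 mM IBMX; incubate with agonist 45 min at 37° C; lyse with HTRF detection reagents and read cAMP.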

[2] = Stability of peptides in Fasted-State Simulated Intestinal Fluid (FaSSIF); type: in vitro ADME; conditions: FaSSIF with 10 mg/ml pancreatin, 37° C.; for remaining at 0.25 h: FaSSIF pH 6.5 with 10 mg/ml pancreatin, t = 15 mins
[3] = molecular target: T2, mouse GLP2 receptor (Mus musculus, UniProt Q5IXF8); experiment: cAMP accumulation assay, functional agonism of mouse GLP2 receptor; type: cell-based
T2 construct: expressed in transfected cells; host or cells: HEK cells, transient transfection with GeneJuice
T2 sequence (Q5IXF8 1-512): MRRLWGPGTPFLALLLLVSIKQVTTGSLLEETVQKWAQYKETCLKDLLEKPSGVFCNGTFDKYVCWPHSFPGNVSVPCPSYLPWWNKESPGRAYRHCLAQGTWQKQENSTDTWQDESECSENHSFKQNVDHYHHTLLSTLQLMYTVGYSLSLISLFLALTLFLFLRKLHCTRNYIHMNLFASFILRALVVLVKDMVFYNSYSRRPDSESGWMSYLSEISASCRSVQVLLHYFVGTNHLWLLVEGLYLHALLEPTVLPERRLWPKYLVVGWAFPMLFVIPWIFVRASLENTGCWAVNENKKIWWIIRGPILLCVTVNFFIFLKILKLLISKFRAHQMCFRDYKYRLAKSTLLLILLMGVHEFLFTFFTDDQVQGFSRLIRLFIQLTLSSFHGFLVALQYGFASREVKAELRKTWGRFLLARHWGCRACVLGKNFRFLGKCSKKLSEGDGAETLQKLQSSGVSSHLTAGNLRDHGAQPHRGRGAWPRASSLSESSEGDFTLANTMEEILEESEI
Summary of the method: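 Transiently transfected HEK cells (24 h, frozen, 8000/well) in HBSS with 0.5 mM IBMX exposed to compound concentration series for 45 min at 37 °C. cAMP measured by HTRF after lysis and 1 h at RT; pEC50 from four-parameter concentration-response fit.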

[4] = molecular target: T3, human GLP1 receptor (Homo sapiens, UniProt P43220); experiment: cAMP accumulation assay, functional agonism of human GLP1 receptor; type: cell-based; conditions: HEK cells infected with human GLP1 receptor BacMam virus, HTRF cAMP; for Emax: HEK293, read-out: Human GLP-1R agonist cAMP Emax; for EC50: read-out: Human GLP-1R agonist cAMP pEC50 (converted)
T3 construct: expressed in transfected cells; host or cells: HEK cells, BacMam virus transduction
Summary of the method: as §1

[5] = molecular target: T4, mouse GLP1 receptor (Mus musculus, UniProt O35659); experiment: cAMP accumulation assay, functional agonism of mouse GLP1 receptor; type: cell-based
T4 construct: expressed in transfected cells; host or cells: HEK cells, transient transfection with GeneJuice
T4 sequence (O35659 22-463): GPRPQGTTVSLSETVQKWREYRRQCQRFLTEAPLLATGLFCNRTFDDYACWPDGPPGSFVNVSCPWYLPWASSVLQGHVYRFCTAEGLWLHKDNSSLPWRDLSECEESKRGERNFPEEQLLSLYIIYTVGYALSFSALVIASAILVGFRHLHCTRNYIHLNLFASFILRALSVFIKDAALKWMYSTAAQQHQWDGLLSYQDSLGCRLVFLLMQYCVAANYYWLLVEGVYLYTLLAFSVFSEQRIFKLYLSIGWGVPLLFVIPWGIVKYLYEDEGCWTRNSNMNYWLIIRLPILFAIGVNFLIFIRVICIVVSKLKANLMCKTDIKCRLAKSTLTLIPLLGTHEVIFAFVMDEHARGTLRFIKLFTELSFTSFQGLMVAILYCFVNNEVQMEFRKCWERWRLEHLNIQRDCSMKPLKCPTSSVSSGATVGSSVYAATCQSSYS
Procedure: CAMP production upon agonist stimulation of mouse GLP2 or GLP1 receptors was assessed utilizing HiRange cAMP kit (Cisbio). In brief, HEK cells were transiently transfected for 24 hours with cDNA using GeneJuice Transfection reagent (EMD Millipore) and frozen at −80° C. for later use in the assay. […] Cells were prepared in the assay buffer (HBSS (Lonza) supplemented with 0.5 mM IBMX (Tocris)). After 45 min incubation at 37° C., the reaction was stopped by addition of the HTRF detection reagents in the lysis buffer provided in the kit. Following 1-hour incubation at RT, plates were read on Pherastar FS (BMG Labtech, Inc.) using standard HTRF settings. Dotmatics Studies software was used for calculation of pEC50 values by fitting data to a four-parameter concentration response curve.

[6] = HEK293, HEK cells transiently transfected with mouse GLP2 receptor, HTRF cAMP, read-out: Mouse GLP-2R agonist cAMP Emax
[7] = HEK cells transiently transfected with mouse GLP2 receptor, HTRF cAMP, read-out: Mouse GLP-2R agonist cAMP pEC50 (converted)
[8] = HEK293, HEK cells transiently transfected with mouse GLP1 receptor, HTRF cAMP, read-out: Mouse GLP-1R agonist cAMP Emax
[9] = HEK cells transiently transfected with mouse GLP1 receptor, HTRF cAMP, read-out: Mouse GLP-1R agonist cAMP pEC50 (converted)

T3 sequence (P43220 24-463): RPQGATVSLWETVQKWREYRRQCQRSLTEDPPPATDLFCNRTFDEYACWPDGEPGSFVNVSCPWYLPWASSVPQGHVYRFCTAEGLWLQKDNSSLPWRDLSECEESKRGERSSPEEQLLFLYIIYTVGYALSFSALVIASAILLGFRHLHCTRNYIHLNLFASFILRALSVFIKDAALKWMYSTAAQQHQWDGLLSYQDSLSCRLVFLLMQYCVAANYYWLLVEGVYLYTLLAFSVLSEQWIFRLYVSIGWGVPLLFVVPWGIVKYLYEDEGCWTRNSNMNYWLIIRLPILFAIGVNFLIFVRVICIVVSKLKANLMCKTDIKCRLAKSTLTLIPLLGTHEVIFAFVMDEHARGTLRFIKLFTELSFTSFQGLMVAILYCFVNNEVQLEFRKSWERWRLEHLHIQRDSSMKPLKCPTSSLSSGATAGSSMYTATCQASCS

| Emax [1] [%] | EC50 [1] [nM] | remaining at 0.5 h ([2]; t=30 mins, pH 6.5, 10 mg/ml pancreatin) [%] | Emax [3, 6] [%] | EC50 [3, 7] [nM] | Emax [4] [%] | EC50 [4] [nM] | Emax [5, 8] [%] | EC50 [5, 9] [nM] | remaining at 0.25 h [2] [%] | Structure (SMILES) | EC50 [3] [nM] | Emax ([3]; HEK293, read-out: Mouse GLP-2R agonist cAMP Emax) [%] | EC50 [5] [nM] | Emax ([5]; HEK293, read-out: Mouse GLP-1R agonist cAMP Emax) [%] |
| --- | --- | --- | --- | --- | --- | --- | --- | --- | --- | --- | --- | --- | --- | --- |
| 103 | 0.398 | 5 | 97.7 | 10 | 90.1 | 0.794 | 91.5 | 0.126 |  | CCCC[C@@H]1NC(=O)[C@H](CCC(=O)O)NC(=O)[C@@H](NC(=O)[C@H](CO)NC(=O)[C@H](Cc2ccccc2)NC(=O)[C@H](CO)NC(=O)CNC(=O)[C@H](Cc2nn[nH]n2)NC(=O)C(C)(C)C(=O)NCCc2c[nH]cn2)CCCCNC(=O)C[C@@H](C(=O)N[C@H](C(=O)N[C@@H](CC(C)C)C(=O)N[C@@H](CC(=O)O)C(=O)N[C@H]2CC(=O)NCCCC[C@@H](C(=O)N[C@@H](CC(=O)O)C(=O)N[C@@H](Cc3ccccc3)C(=O)N[C@H](C(=O)N[C@@H](CC(N)=O)C(=O)N[C@@H](Cc3c[nH]c4ccccc34)C(=O)N[C@@H](CC(C)C)C(=O)N[C@H](C(=O)N[C@@H](CCC(N)=O)C(=O)N[C@H](C(=O)N[C@H]3CCC(=O)NCCCC[C@@H](C(N)=O)NC(=O)[C@H]([C@@H](C)O)NC(=O)[C@H]([C@@H](C)CC)NC3=O)[C@@H](C)O)[C@@H](C)CC)[C@@H](C)CC)NC(=O)[C@H](C)NC(=O)[C@H](C)NC(=O)[C@H](CCCCN)NC2=O)[C@@H](C)CC)NC(=O)[C@@H](Cc2ccccc2)NC1=O [Example 1] ({Malonyl(2,2-Me2,histaminyl)}-[Ala(1H-tetrazol-5-yl)]GSFSKE[Nle][dF]DILDDKAAKDFINWLIQTEITK-NH2; lactam 6-10, 14-18, 28-31) |  |  |  |  |
| 102 | 0.00251 |  | 99.2 | 0.00631 | 98.7 | 2.51 | 91.4 | 0.631 | 1.7 | CCCC[C@H](NC(=O)[C@H](CCC(=O)O)NC(=O)[C@H](CC(=O)O)NC(=O)[C@H](CO)NC(=O)[C@H](Cc1ccccc1)NC(=O)[C@H](CO)NC(=O)CNC(=O)[C@H](CC(=O)O)NC(=O)C(C)(C)NC(=O)[C@@H](N)Cc1c[nH]cn1)C(=O)N[C@H](Cc1ccccc1)C(=O)N[C@H]1CCC(=O)NCCCC[C@@H](C(=O)N[C@@H](CCCCN)C(=O)N[C@@H](C)C(=O)N[C@@H](C)C(=O)N[C@@H](CCCCN)C(=O)N[C@@H](CC(=O)O)C(=O)N[C@@H](Cc2ccccc2)C(=O)N[C@H](C(=O)N[C@@H](CC(N)=O)C(=O)N[C@@H](Cc2c[nH]c3ccccc23)C(=O)N[C@@H](CC(C)C)C(=O)N[C@H](C(=O)N[C@@H](CCC(N)=O)C(=O)N[C@H](C(=O)N[C@@H](CCCCN)C(=O)N[C@H](C(=O)N[C@H](C(=O)N[C@@H](CC(=O)O)C(N)=O)[C@@H](C)O)[C@@H](C)CC)[C@@H](C)O)[C@@H](C)CC)[C@@H](C)CC)NC(=O)[C@H](CC(=O)O)NC(=O)[C@H](CC(C)C)NC(=O)[C@H]([C@@H](C)CC)NC1=O [Example 87] (H-H[Aib]DGSFSDE[Nle][dF]EILDKKAAKDFINWLIQTKITD-NH2; lactam 12-16 (inferred); C-terminus assumed) |  |  |  |  |
| 102 | 0.00316 |  | 98.7 | 0.00631 | 99.2 | 1.26 | 96.4 | 0.1 | 0.5 | CCCC[C@H](NC(=O)[C@H](CCC(=O)O)NC(=O)[C@H](CC(=O)O)NC(=O)[C@H](CO)NC(=O)[C@H](Cc1ccccc1)NC(=O)[C@H](CO)NC(=O)CNC(=O)[C@H](CC(=O)O)NC(=O)C(C)(C)NC(=O)[C@@H](N)Cc1c[nH]cn1)C(=O)N[C@H](Cc1ccccc1)C(=O)N[C@H]1CCCCNC(=O)C[C@@H](C(=O)N[C@@H](CCCCN)C(=O)N[C@@H](C)C(=O)N[C@@H](C)C(=O)N[C@@H](CCCCN)C(=O)N[C@@H](CC(=O)O)C(=O)N[C@@H](Cc2ccccc2)C(=O)N[C@H](C(=O)N[C@@H](CC(N)=O)C(=O)N[C@@H](Cc2c[nH]c3ccccc23)C(=O)N[C@@H](CC(C)C)C(=O)N[C@H](C(=O)N[C@@H](CCC(N)=O)C(=O)N[C@H](C(=O)N[C@@H](CCCCN)C(=O)N[C@H](C(=O)N[C@H](C(=O)N[C@@H](CC(=O)O)C(N)=O)[C@@H](C)O)[C@@H](C)CC)[C@@H](C)O)[C@@H](C)CC)[C@@H](C)CC)NC(=O)[C@H](CC(=O)O)NC(=O)[C@H](CC(C)C)NC(=O)[C@H]([C@@H](C)CC)NC1=O [Example 88] (H-H[Aib]DGSFSDE[Nle][dF]KILDDKAAKDFINWLIQTKITD-NH2; lactam 12-16) |  |  |  |  |

| Structure (SMILES) | Emax [1] [%] | EC50 [1] [nM] | remaining at 0.5 h ([2]; t=30 mins, pH 6.5, 10 mg/ml pancreatin) [%] | Emax [3, 6] [%] | EC50 [3, 7] [nM] | Emax [4] [%] | EC50 [4] [nM] | Emax [5, 8] [%] | EC50 [5, 9] [nM] | remaining at 0.25 h [2] [%] | EC50 [3] [nM] | Emax ([3]; HEK293, read-out: Mouse GLP-2R agonist cAMP Emax) [%] | EC50 [5] [nM] | Emax ([5]; HEK293, read-out: Mouse GLP-1R agonist cAMP Emax) [%] |
| --- | --- | --- | --- | --- | --- | --- | --- | --- | --- | --- | --- | --- | --- | --- |
| CCCC[C@H](NC(=O)[C@H](CCC(=O)O)NC(=O)[C@H](CC(=O)O)NC(=O)[C@H](CO)NC(=O)[C@H](Cc1ccccc1)NC(=O)[C@H](CO)NC(=O)[C@@H](C)NC(=O)[C@H](Cc1nn[nH]n1)NC(=O)C(C)(C)C(=O)NCCc1c[nH]cn1)C(=O)N[C@H](Cc1ccccc1)C(=O)N[C@H](C(=O)N[C@@](C)(CC(C)C)C(=O)N[C@@H](CC(C)C)C(=O)N[C@@H](CC(=O)O)C(=O)N[C@H]1CCC(=O)NCCCC[C@@H](C(=O)N[C@@H](CC(=O)O)C(=O)N[C@@H](Cc2ccccc2)C(=O)N[C@H](C(=O)N[C@H]2CCC(=O)NCCCC[C@@H](C(=O)N[C@H](C(=O)N[C@@H](CCCCN)C(N)=O)[C@@H](C)O)NC(=O)[C@H]([C@@H](C)CC)NC(=O)[C@H](CC(C)C)NC(=O)[C@H](Cc3c[nH]c4ccccc34)NC2=O)[C@@H](C)CC)NC(=O)[C@H](C)NC(=O)[C@H](C)NC(=O)[C@H](CCCCN)NC1=O)[C@@H](C)O [Example 117] ({Malonyl(2,2-Me2,histaminyl)}-[Ala(1H-tetrazol-5-yl)][dA]SFSDE[Nle][dF]T[αMeL]LDEKAAKDFIEWLIKTK-NH2; lactam 14-18, 22-26; C-terminus assumed) | 103 | 0.00316 |  |  |  | 94.7 | 0.126 |  |  |  | 0.158 | 99.3 | 0.0794 | 96.9 |
